PMC4706877, “Antibacterial and Cytotoxic Activity of Compounds Isolated from Flourensia oolepis” (Evidence-based Complementary and Alternative Medicine : eCAM, 2015)
In brackets after ≈: the same amount, converted by molar mass. Where a name gives a salt, the structure may show the parent alone. Read-outs that look alike come from different tables or passages of the source.

What was measured:
[1] = tested on: tetracycline, erythromycin, and polymyxin-resistant Proteus mirabilis (Pr2921); assay: Agar dilution MIC / MBC; type: cell-based; conditions: P. mirabilis; for MIC: agar dilution, 24 h; for MBC: value in parentheses
Procedure: (§1) This isolate was identified by conventional biochemical assays and by the commercial system API20E (bioMérieux SA, Mercy L'Etoile, France). Antimicrobial resistances were determined by disk diffusion susceptibility testing (Kirby-Bauer Method) according to CLSI [15]. Bacterial suspensions were prepared on sterile saline from each organism grown overnight. Turbidity was spectrophotometrically adjusted to the McFarland 0.5 standard. Dilutions were carried out with sterile saline to give an adjusted concentration of 1.5 × 10^7 colony-forming units/mL.
(§2) Three independent experiments were carried out. […] For reading, visual observations were carried out.

[2] = tested on: Enterococcus faecalis (ATCC 29212); assay: Agar dilution MIC / MBC; type: cell-based; conditions: ATCC29212, E. faecalis; for MIC: agar dilution, 24 h; for MBC: value in parentheses
Procedure: as §1, §2

[3] = tested on: Pseudomonas aeruginosa (ATCC 27853); assay: Agar dilution MIC / MBC; type: cell-based; conditions: ATCC27853, P. aeruginosa; for MIC: agar dilution, 24 h; for MBC: value in parentheses
Procedure: as §1, §2

[4] = tested on: Escherichia coli (ATCC 25922); assay: Agar dilution MIC / MBC; type: cell-based; conditions: ATCC25922, E. coli; for MIC: agar dilution, 24 h; for MBC: value in parentheses
Procedure: as §1, §2

[5] = tested on: Staphylococcus aureus subsp. aureus (ATCC 6538); assay: Agar dilution MIC / MBC; type: cell-based; conditions: Staphylococcus aureus, ATCC6538, S. aureus; for MIC: agar dilution, 24 h; for MBC: value in parentheses, read-out: MBC
Procedure: as §1, §2

[6] = tested on: CCRF-CEM acute lymphoblastic leukemia cells; assay: MTT cell proliferation assay; type: cell-based, human
Procedure: (§3) The HEK293T non-tumor derived cell line and human isolated mononuclear cells (PBMC) were also tested. […] Cells were cultured at 37°C in a 5% CO2 humidified environment.
(§4) To investigate the cytotoxic potential of the isolated compounds, the MTT colorimetric assay was performed. […] The compounds were evaluated at a final maximum concentration of 100 μM. After 72 hours, 20 μL of 5 mg/mL solution of MTT in sterile PBS was added to each well and further incubated for 4 h. Then, the supernatants were removed and replaced with 100 μL DMSO to solubilize the resulting purple formazan crystals produced from metabolically viable cells. Absorbance was measured with an iMark micro-plate reader (Bio-Rad, USA) at 595 nm. Two wells were used for each concentration of the products assayed and three independent experiments were performed. […] The percentage of cytotoxic activity of the assayed compounds was determined by the following formula: cytotoxicity (%) = [1 − (optical density of treated cells − optical density DMSO)/(optical density of ethanol control cells − optical density DMSO)] × 100.
(§5) Data were analyzed by one-way analysis of variance (ANOVA) and means were compared using Bonferroni's comparison test, with p ≤ 0.05 considered as statistically significant.

[7] = tested on: K562 chronic myeloid leukemia cells; assay: MTT cell proliferation assay; type: cell-based, human; conditions: Homo sapiens, K562, MTT, 72 h, read-out: IC50 values and 95% confidence limits (lower, upper)
Procedure: as §3, §4, §5

[8] = tested on: CEM/ADR5000 cells (MDR, P-glycoprotein overexpressing); assay: cells; type: cell-based, human; conditions: for IC50: Homo sapiens, ADR5000, 72 h, CEM/ADR5000, MTT, 72 h, read-out: IC50 values and 95% confidence limits (lower, upper)
Procedure: as §3
(§6) The latter concentration was then used for maintenance of the cells. Lucena 1 were continuously cultured in the presence of 60 nM DOX. Both cell lines were grown in drug-free medium 3-4 days before the experiments. Overexpression of P-glycoprotein (P-gp) in both MDR variants was verified by flow cytometry using FITC-labeled mouse anti-human P-gp (BD Pharmingen, USA). Cells were subcultured twice a week from frozen stocks and used before the 20th passage. All experiments were performed with cells in the logarithmic growth phase with cell viabilities over 90%, determined by trypan blue staining.
as §4, §5

[9] = tested on: Lucena 1 cells (MDR, P-glycoprotein overexpressing); assay: cells; type: cell-based, human; conditions: for IC50: Homo sapiens, Lucena 1, 72 h, Lucena 1, MTT, 72 h, read-out: IC50 values and 95% confidence limits (lower, upper)
Procedure: as §3, §6, §4, §5

[10] = tested on: bacteria; assay: Antibacterial test of fractions during bioguided isolation; conditions: at 2 mg/mL
Procedure: MICs were determined by the agar dilution test according to CLSI [15] with some modifications [7]. Briefly, the plate count agar medium (PCA, Oxoid Ltd, UK) was added in duplicate to the suitable amount of fraction or pure compound previously dissolved in ethanol. […] After solidification of the agar in 6-well plates (Greiner Bio-One, Germany), 2 μL of each bacterial suspension was placed on the agar surface. Three independent experiments were carried out. […] For reading, visual observations were carried out. Nitro blue tetrazolium (NBT, Sigma-Aldrich CO, USA) solution in saline phosphate buffer (PBS) was applied on one spot for confirmation. Plates containing only the culture medium, with or without the addition of the dissolution solvent, were used as controls. Positive controls with commercial gentamicin sulfate or erythromycin dissolved in sterile water or ethanol, respectively, were simultaneously carried out.
The bactericidal effect was further studied from each concentration of product showing growth inhibition. […] At the end of this period, the minimum bactericidal concentration (MBC) values, defined as the lowest concentration with absence of turbidity, were recorded.

[11] = Homo sapiens; CCRF-CEM; MTT, 72 h; read-out: IC50 values and 95% confidence limits (lower, upper)

Row | Structure (SMILES) | MIC [1] | MBC [1] | MIC [2] | MBC [2] | MIC [3] | MBC [3] | MIC [4] | MBC [4] | MIC [5] | MBC [5] | IC50 ([6]; Homo sapiens, CCRF-CEM, 72 h, CCRF-CEM; MTT, 72 h; read-out: IC50 values and 95% confidence limits (lower, upper)) | IC50 ([7]; K562, 72 h) | resistant index (RI) = IC50 resistant cells/IC50 sensitive cells ([8]; CEM/ADR5000 vs CCRF-CEM) | IC50 [8] | resistant index (RI) = IC50 resistant cells/IC50 sensitive cells [9] | IC50 [9] | IC50 [6, 11] | IC50 [7] | bactericidal activity [10]
1 | CNC(C)C1CCC(N)C(OC2C(N)CC(N)C(OC3OCC(C)(O)C(NC)C3O)C2O)O1 (stereo not drawn) [Gentamicin, Gentamicin sulfate, reference compound] | 10 µg/mL | 10 µg/mL | 8 µg/mL | 10 µg/mL | 4 µg/mL | 4 µg/mL | 4 µg/mL | 8 µg/mL | 8 µg/mL | 10 µg/mL |  |  |  |  |  |  |  |  | 
2 | COc1cccc2c1C(=O)c1c(O)c3c(c(O)c1C2=O)C[C@@](O)(C(=O)CO)C[C@@H]3O[C@H]1C[C@H](N)[C@H](O)[C@H](C)O1 [Doxorubicin, Doxorubicin hydrochloride, reference compound] |  |  |  |  |  |  |  |  |  |  | 0.133 µM | 4.1 µM | ≥ 518.8 | > 69 µM | ≥ 16.8 | > 69 µM |  |  | 
3 | O=C1C[C@@H](c2ccccc2)Oc2cc(O)cc(O)c21 [Compound 3, pinocembrin] | > 500 µg/mL | > 500 µg/mL | 62 µg/mL (≈ 242 µM) | 125 µg/mL (≈ 488 µM) | > 500 µg/mL | > 500 µg/mL | 500 µg/mL (≈ 1950 µM) | 500 µg/mL (≈ 1950 µM) | 15 µg/mL (≈ 58.5 µM) | 62 µg/mL (≈ 242 µM) |  |  |  | 53.5 µM |  | > 100 µM | 58.9 µM | > 100 µM | bactericidal effects
4 | COc1cc(C2CC(=O)c3ccc(O)cc3O2)ccc1O (stereo not drawn) [Compound 5, 7,4′-dihydroxy-3′-methoxyflavanone] | > 500 µg/mL | > 500 µg/mL | 500 µg/mL (≈ 1750 µM) | > 500 µg/mL | > 500 µg/mL | > 500 µg/mL | > 500 µg/mL | > 500 µg/mL | 250 µg/mL (≈ 873 µM) | > 500 µg/mL |  |  |  | 30.4 µM |  | > 100 µM | 24.8 µM | > 100 µM | 
5 | CC[C@H]1OC(=O)[C@H](C)[C@@H](O[C@H]2C[C@@](C)(OC)[C@@H](O)[C@H](C)O2)[C@H](C)[C@@H](O[C@@H]2O[C@H](C)C[C@H](N(C)C)[C@H]2O)[C@](C)(O)C[C@@H](C)C(=O)[C@H](C)[C@@H](O)[C@]1(C)O [Erythromycin, erythromycin, reference compound] | 500 µg/mL (≈ 681 µM) | > 500 µg/mL | 1 µg/mL (≈ 1.36 µM) | 30 µg/mL (≈ 40.9 µM) | 62 µg/mL (≈ 84.5 µM) | 500 µg/mL (≈ 681 µM) | 125 µg/mL (≈ 170 µM) | > 500 µg/mL | 1 µg/mL (≈ 1.36 µM) | 60 µg/mL (≈ 81.8 µM) |  |  |  |  |  |  |  |  | 
6 | O=C(/C=C/c1ccc(O)cc1)c1ccc(O)cc1O [Compound 2, isoliquiritigenin] | > 500 µg/mL | > 500 µg/mL | 500 µg/mL (≈ 1950 µM) | > 500 µg/mL | > 500 µg/mL | > 500 µg/mL | > 500 µg/mL | > 500 µg/mL | 250 µg/mL (≈ 976 µM) | 500 µg/mL (≈ 1950 µM) |  |  |  | 51.9 µM |  | > 100 µM | 58.1 µM | > 100 µM | 
